US20240270703A1, “HERBICIDAL COMPOUNDS” (SYNGENTA CROP PROTECTION AG, priority 2021, published 2024)

Legend:
Format in all cases: in vivo
[1] = system: Amaranthus retroflexus (AMARE); assay: Herbicidal glasshouse test, POST application; conditions: 130 g/ha; evaluated after 14 days; 100=total damage to plant, 0=no damage to plant
[2] = system: Abutilon theophrasti (ABUTH); assay: Herbicidal glasshouse test, POST application; conditions: 130 g/ha; evaluated after 14 days; 100=total damage to plant, 0=no damage to plant
Setaria faberi (SETFA) [3] = assay: Herbicidal glasshouse test, POST application; conditions: 130 g/ha; evaluated after 14 days; 100=total damage to plant, 0=no damage to plant
[4] = system: Echinochloa crus-galli (ECHCG); assay: Herbicidal glasshouse test, POST application; conditions: 130 g/ha; evaluated after 14 days; 100=total damage to plant, 0=no damage to plant
Zea mays (ZEAMX) [5] = assay: Herbicidal glasshouse test, POST application (crop damage); conditions: 130 g/ha; evaluated after 14 days; 100=total damage to plant, 0=no damage to plant; maize crop
[6] = system: Abutilon theophrasti (ABUTH); assay: Herbicidal glasshouse test, PRE application; conditions: 130 g/ha; evaluated after 14 days; 100=total damage to plant, 0=no damage to plant
Experimental: (§1) Seeds of a variety of test species are sown in standard soil in pots (Lolium perenne (LOLPE), Amaranthus retroflexus (AMARE), Abutilon theophrasti (ABUTH), Setaria faberi (SETFA), Echinochloa crus-galli (ECHCG), Zea mays (ZEAMX)). After cultivation for one day under controlled conditions in a glasshouse (at 24/16° C., day/night; 14 hours light; 65% humidity), the plants were sprayed with an aqueous spray solution derived from the formulation of the technical active ingredient in 0.6 ml acetone and 45 ml formulation solution containing 10.6% Emulsogen EL (Registry number 61791-12-6), 42.2% N-methyl pyrrolidone, 42.2% dipropylene glycol monomethyl ether (CAS RN 34590-94-8) and 0.2% X-77 (CAS RN 11097-66-8).
(§2) The test plants were then grown in a glasshouse under controlled conditions in a glasshouse (at 24/16° C., day/night; 14 hours light; 65% humidity) and watered twice daily. After 14 days, the test was evaluated (100=total damage to plant; 0=no damage to plant, NC=data not captured). The compounds were applied at 130 g/ha unless otherwise stated.

[7] = system: Amaranthus retroflexus (AMARE); assay: Herbicidal glasshouse test, PRE application; conditions: 130 g/ha; evaluated after 14 days; 100=total damage to plant, 0=no damage to plant
Experimental: as §1, §2

[8] = system: Echinochloa crus-galli (ECHCG); assay: Herbicidal glasshouse test, PRE application; conditions: 130 g/ha; evaluated after 14 days; 100=total damage to plant, 0=no damage to plant
Experimental: as §1, §2

Setaria faberi (SETFA) [9] = assay: Herbicidal glasshouse test, PRE application; conditions: 130 g/ha; evaluated after 14 days; 100=total damage to plant, 0=no damage to plant
Experimental: as §1, §2

Zea mays (ZEAMX) [10] = assay: Herbicidal glasshouse test, PRE application (crop damage); conditions: 130 g/ha; evaluated after 14 days; 100=total damage to plant, 0=no damage to plant; maize crop
Experimental: as §1, §2

SMILES | damage to plant, AMARE, POST Application [1] | damage to plant, ABUTH, POST Application [2] | damage to plant, SETFA, POST Application (Setaria faberi (SETFA) [3]) | damage to plant, ECHCG, POST Application [4] | damage to plant, ZEAMX, POST Application (Zea mays (ZEAMX) [5]) | damage to plant, ABUTH, PRE Application [6] | damage to plant, AMARE, PRE Application [7] | damage to plant, ECHCG, PRE Application [8] | damage to plant, SETFA, PRE Application (Setaria faberi (SETFA) [9]) | damage to plant, ZEAMX, PRE Application (Zea mays (ZEAMX) [10])
Cn1nnnc1NC(=O)c1ccc(OC(F)(F)F)c(S(=O)(=O)NCC2CC2)c1Cl [Compound 1.001] | 100 | 80 | 20 | 60 | 0 | 100 | 100 | 20 | 0 | 0
CCNS(=O)(=O)c1c(OC(F)(F)F)ccc(C(=O)Nc2nnnn2C)c1Cl [Compound 1.002, 2-chloro-3-(ethylsulfamoyl)-N-(1-methyltetrazol-5-yl)-4-(trifluoromethoxy)benzamide] | 100 | 90 | 70 | 90 | 0 | 80 | 100 | 10 | 0 | 0
CN(C)S(=O)(=O)c1c(OC(F)(F)F)ccc(C(=O)Nc2nnnn2C)c1Cl [Compound 1.003] | 100 | 100 | 100 | 100 | 0 | 90 | 90 | 70 | 0 | 0
CNS(=O)(=O)c1c(OC(F)(F)F)ccc(C(=O)Nc2nnnn2C)c1Cl [Compound 1.004] | 80 | 80 | 80 | 80 | 10 | 100 | 100 | 90 | 90 | 0
CN(C)S(=O)(=O)c1c(OC(F)F)ccc(C(=O)Nc2nnnn2C)c1Cl [Compound 1.009] | 100 |  | 90 | 90 | 10 |  | 100 | 100 | 100 | 10
CCN(C)S(=O)(=O)c1c(OC(F)F)ccc(C(=O)Nc2nnnn2C)c1Cl [Compound 1.010] | 100 |  | 90 | 100 | 10 |  | 100 | 100 | 100 | 10
